Data on 1 compound can be found in patent US8008340B2, “3-arylthioindole-2-carboxamide derivatives and analogs thereof as inhibitors of casein kinase I” (Aventis Pharmaceuticals Inc., priority 2004, dated 2011).

Experiment [1] deals with Mper1-luc Rat-1 fibroblasts (P2C4). As to the kind of experiment: Cellular Circadian Assay (Mper1-luc reporter, period lengthening). In kind it is cell-based. The settings on record: effective micromolar concentration that induced a 1 hour lengthening of period. The text has this: U.S. Pat. No. 6,555,328 B1 discloses screening methods in cells to identify compounds that alter circadian rhythms based on a test compound altering the ability of human casein kinase 1ε and/or human casein kinase 1δ to phosphorylate the human clock proteins hPER1, hPER2 and hPER3. For example, HEK293T cells are co-transfected with hCKIε and Per1 or Per2. For the purpose of evaluating the relevancy of CKIε inhibition and CKIε inhibitors to circadian biology, a high-throughput cellular assay (33rd Annual Meeting, Soc. for Neurosci., Nov. 8-12, 2003, Abstract numbers 284.1, 284.2, and 284.3) was developed in which circadian rhythm could be monitored in a routine manner. The assay consists of Rat-1 fibroblasts stably expressing an Mper1-luc construct, thus enabling the determination of the rhythmic activation of the Mper1 promoter in living cells by repeatedly estimating luciferase activity by monitoring light-output over several days. The repeated measure format of the assay permits accurate and reproducible assessment of the concentration-dependent effects of CKIε inhibitors on circadian rhythm and provides the nexus for relating CKIε inhibition to circadian period alteration.
Cell culture: Mper1-luc Rat-1 fibroblasts (P2C4) cultures were split every 3-4 days (˜10-20% confluence) onto 150 cm^2 vented polystyrene tissue culture flasks (Falcon #35-5001) and maintained in growth media [EMEM (Cellgro #10-010-CV); 10% fetal bovine serum (FBS; Gibco #16000-044); and 50 I.U./mL penicillin-streptomycin (Cellgro #30-001-C1)] at 37° C. and 5% CO2. […] Zeocin-resistant stable transfectants were assessed for reporter expression by supplementing growth media with 100 μM luciferin (Promega #E1603) and assaying luciferase activity on a TopCount scintillation counter (Packard Model #C384V00). Rat-1 clones expressing both Zeocin-resistance and mPer1-driven luciferase activity were synchronized by 50% horse serum [HS (Gibco #16050-122)] serum shock and assessed for circadian reporter activity. […]

The target in a further experiment is T1, casein kinase 1ε (Homo sapiens, UniProt P49674).
T1 construct: made in house
Put plainly: Casein Kinase Epsilon 33P-ATP Filter Plate Assay. To be noted: phosphorylation of casein, 33P-ATP with 10 μM cold ATP, 2 hours at room temperature; * denotes average of two or more determinations; read-out: CKIε Inhibition IC50. In kind it is biochemical. Here is the method:
Casein Kinase Epsilon ^33P-ATP Filter Plate Assay for Screening CK1ε Inhibitors Purpose: This assay measures the effect of compounds to inhibit the phosphorylation of the substrate casein by the enzyme casein kinase 1ε using an in vitro ^33P-ATP filtration assay. Compounds are tested at five concentrations in duplicate in order to generate IC50 values or % inhibition at a 10 micromolar concentration that are summarized in Table 4.
Enzyme: • Casein Kinase 1ε final concentration 0.58 mg/ml obtained from fermentation and purification processes as are well known to one skilled in the art. The above are stored as 100 μL aliquots at minus 80° C.
Compounds: • Compounds for testing are supplied as frozen 10 mM compound stock dissolved in 100% DMSO. Assay Conditions:
Final total assay volume per well is equal to 50 μL made up as follows: • 5 μL of diluted compound stock (10, 1, 0.1, 0.01 or 0.001 μM), • 5 μL of dephosphorylated casein final concentration 0.2 μg/μL, • 20 μL of CK1ε final concentration 3 ng/μL, and • 20 μL of γ-^33P-ATP final concentration 0.02 μCi/μL mixed with cold ATP (10 μM final). Methodology: • 1. 500 mL of fresh assay buffer is made: 50 mM Tris pH 7.5, 10 mM MgCl2, 2 mM DTT and 1 mM EGTA • 2. Compounds to be evaluated are obtained as 10 μL of 10 mM stock dissolved in 100% DMSO. Using a Biomek 2000 liquid handling robot, serial dilutions are made to yield 10, 1, 0.1, 0.01 and 0.001 μM final compound dilutions added as 5 μL additions to Falcon U bottom plates. Typically 8 compounds are tested per 96 well plate with column 1 and 12 serving as control wells. A routine screening assay will consist of 32 compounds, which equals 4 assay plates. • 3. Assay plate maps are set up according to the following pattern CKlePlateMap.xls
• 4. Once 5 μL of compound has been added as indicated, 5 μL of dephosphorylated casein (dissolved in distilled H2O)(0.2 μg/μL) and 20 μL CK1ε (3 ng/μL) are added to the appropriate wells. • 5. Finally 20 μL γ-^33P-ATP (0.02 μCi/μL)/10 μM cold ATP are added (equals approximately 2×10^6 CPM per well). • 6. The Falcon U-Bottom assay plate containing the above 50 μL reaction volume is vortexed and then incubated at room temperature for 2 hours. • 7. At the end of 2 hours, the reaction is stopped by the addition of 65 μL of ice cold 2 mM cold ATP (made up in assay buffer) to the assay plates using a Beckman Multimek • 8. At the same time 25 μL 100% ice cold TCA made up in distilled H2O is added to a matching number of Millipore MAPH filter plates. • 9. Using a handheld 8-channel pipettor, 100 μL of the reaction mixture is transferred from the Falcon U-Bottom Plate to the Millipore MAPH filter plates presoaked with TCA. • 10. The Millipore MAPH filter plates are mixed gently and allowed to sit at room temperature for at least 30 minutes to precipitate the proteins. • 11. After 30 minutes the filter plates are placed on a Millipore vacuum manifold and filtered at no more than 8 mm Hg as the MAPH filters tend to “air lock” at higher vacuum settings. • 12. The filter plates are sequentially washed and filtered with 2×150 μL 20% TCA, 2×150 μL 10% TCA and 2×150 μL 5% TCA (total of 6 washes per plate/900 μL per well). • 13. Plates are allowed to dry overnight at room temperature. The next day 40 μL Packard Microscint-20 Scintillation Fluid is added per well using a Titertek Multidrop dispenser; the plates are sealed and counted for 2 minutes/well in a Packard Topcount NXT Scintillation Counter (CPM values/well are captured).
Calculation: • 1. Counts Per Minute (CPM) data is captured and imported into a proprietary data calculation and archiving database (Activity Base by IDBS version 5.0). • 2. Column 1 for each plate reflects total phosphorylation activity of the enzyme in the absence of any inhibiting compound and thus represents 100%. Column 12 reflects any nonspecific phosphorylation/retained radioactivity activity in the absence of inhibiting compound and enzyme. […]

T1 sequence (P49674 whole entry): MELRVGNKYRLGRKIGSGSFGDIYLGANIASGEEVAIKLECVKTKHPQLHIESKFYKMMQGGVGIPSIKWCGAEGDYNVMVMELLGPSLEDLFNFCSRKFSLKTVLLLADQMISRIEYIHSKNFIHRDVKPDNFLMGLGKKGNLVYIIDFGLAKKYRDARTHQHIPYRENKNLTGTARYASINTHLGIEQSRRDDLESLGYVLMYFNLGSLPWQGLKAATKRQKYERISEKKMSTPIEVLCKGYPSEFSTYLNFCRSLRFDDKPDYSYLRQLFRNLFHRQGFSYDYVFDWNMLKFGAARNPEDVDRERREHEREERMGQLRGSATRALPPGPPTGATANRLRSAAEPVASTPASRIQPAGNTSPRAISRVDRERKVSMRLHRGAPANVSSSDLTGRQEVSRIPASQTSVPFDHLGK

Take `NC(=O)c1[nH]c2ccc(Br)cc2c1Sc1ccccc1N` [Ig, 3-(2-Amino-phenylsulfanyl)-5-bromo-1H-indole-2-carboxylic acid amide]: in experiment [1], the “Cell Assay ECΔτ+1h” value stood at 1.6 µM. In addition, the IC50 at casein kinase 1ε came out at 120 nM.
